Values after ≈ are worked out from the molar mass of the structure shown.
What was measured:
B. subtilis 168 [1] = tested on: B. subtilis 168
S. aureus DSM 20231 [2] = tested on: S. aureus DSM 20231
S. aureus Newman [3] = tested on: S. aureus Newman
S. pneumoniae D39V [4] = tested on: S. pneumoniae D39V
B. subtilis 168 [5] = assay: fitness (endpoint OD595 vs no drug) (fraction); higher = more growth
Method in brief: (§1)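 Fitness was defined as the optical density at the transition into stationary phase relative to the robust mean of no-drug control wells. Values were capped at 1. Cultures were started at OD595 0.01 in 384-well plates (30 µl, or 55 µl for S. pneumoniae) in TSB, LB Lennox or CY at 37 °C. OD595 was recorded every 30 min over 14 h, with the first reading subtracted as background.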

S. aureus DSM 20231 [6] = assay: as above
Method in brief: as §1

S. aureus Newman [7] = assay: as above
Method in brief: as §1

S. pneumoniae D39V [8] = assay: as above
Method in brief: as §1

CCC[C@@H]1C[C@@H](C(=O)N[C@@H]([C@H]2O[C@H](SC)[C@H](O)[C@@H](O)[C@H]2O)[C@H](C)Cl)N(C)C1 [Clindamycin]
Conditions | MIC [µg/mL]
B. subtilis 168 [1] | 1 (≈ 2.35 µM)
S. aureus DSM 20231 [2] | 0.125 (≈ 0.294 µM)
S. aureus Newman [3] | 0.125 (≈ 0.294 µM)
S. pneumoniae D39V [4] | 0.125 (≈ 0.294 µM)

Conditions | fitness
B. subtilis 168 [5], 0.0625 µg/mL | 0.596
B. subtilis 168 [5], 0.125 µg/mL | 0.432
B. subtilis 168 [5], 0.25 µg/mL | 0.393
S. aureus DSM 20231 [6], 0.0312 µg/mL | 0.747
S. aureus DSM 20231 [6], 0.0625 µg/mL | 0.246
S. aureus DSM 20231 [6], 0.125 µg/mL | 0.0653
S. aureus Newman [7], 0.0312 µg/mL | 0.775
S. aureus Newman [7], 0.0625 µg/mL | 0.432
S. aureus Newman [7], 0.125 µg/mL | 0.108
S. pneumoniae D39V [8], 0.015 µg/mL | 0.869
S. pneumoniae D39V [8], 0.03 µg/mL | 0.682
S. pneumoniae D39V [8], 0.06 µg/mL | 0.456

N[C@@H]1CONC1=O [Cycloserine D]
Conditions | MIC [µg/mL]
B. subtilis 168 [1] | 0.5 (≈ 4.9 µM)
S. aureus DSM 20231 [2] | 1.5 (≈ 14.7 µM)
S. aureus Newman [3] | 1.5 (≈ 14.7 µM)
S. pneumoniae D39V [4] | 8.75 (≈ 85.7 µM)

Conditions | fitness
B. subtilis 168 [5], 0.125 µg/mL | 0.963
B. subtilis 168 [5], 0.25 µg/mL | 0.948
B. subtilis 168 [5], 0.5 µg/mL | 0.966
S. aureus DSM 20231 [6], 0.375 µg/mL | ≥ 1
S. aureus DSM 20231 [6], 0.75 µg/mL | ≥ 1
S. aureus DSM 20231 [6], 1.5 µg/mL | ≥ 1
S. aureus Newman [7], 0.375 µg/mL | ≥ 1
S. aureus Newman [7], 0.75 µg/mL | ≥ 1
S. aureus Newman [7], 1.5 µg/mL | 0.983
S. pneumoniae D39V [8], 2.188 µg/mL | 0.872
S. pneumoniae D39V [8], 4.375 µg/mL | 0.81
S. pneumoniae D39V [8], 8.75 µg/mL | 0.533

O=C(O[C@@H]1Cc2c(O)cc(O)cc2O[C@@H]1c1cc(O)c(O)c(O)c1)c1cc(O)c(O)c(O)c1 [EGCG]
Conditions | MIC [µg/mL]
B. subtilis 168 [1] | 50 (≈ 109 µM)
S. aureus DSM 20231 [2] | 50 (≈ 109 µM)
S. aureus Newman [3] | 50 (≈ 109 µM)
S. pneumoniae D39V [4] | 400 (≈ 873 µM)

fitness
Conditions | B. subtilis 168 [5] | S. aureus DSM 20231 [6] | S. aureus Newman [7] | S. pneumoniae D39V [8]
6.25 µg/mL | 0.91 | – | – | –
12.5 µg/mL | 0.709 | 0.841 | 0.778 | 0.946
25 µg/mL | 0.34 | 0.776 | 0.714 | 0.964
50 µg/mL | – | 0.795 | 0.671 | 0.987

CC(=O)O[C@H]1C[C@@]2(C)[C@@H](C[C@@H](O)[C@H]3[C@@]4(C)CC[C@@H](O)[C@@H](C)[C@@H]4CC[C@@]32C)/C1=C(\CCC=C(C)C)C(=O)O [Fusidic acid]
Conditions | MIC [µg/mL]
B. subtilis 168 [1] | 0.5 (≈ 0.968 µM)
S. aureus Newman [3] | 0.139 (≈ 0.269 µM)
S. pneumoniae D39V [4] | 4 (≈ 7.74 µM)

O=C1CN(/N=C/c2ccc([N+](=O)[O-])o2)C(=O)N1 [Nitrofurantoin]
Conditions | MIC [µg/mL]
B. subtilis 168 [1] | 16 (≈ 67.2 µM)
S. aureus DSM 20231 [2] | 8.89 (≈ 37.3 µM)
S. aureus Newman [3] | 10 (≈ 42 µM)
S. pneumoniae D39V [4] | 16 (≈ 67.2 µM)

S. pneumoniae D39V [8]
Conditions | fitness
2 µg/mL | 0.941
4 µg/mL | 0.888
8 µg/mL | 0.724

CN[C@H](CC(C)C)C(=O)N[C@H]1C(=O)N[C@@H](CC(N)=O)C(=O)N[C@H]2C(=O)N[C@H]3C(=O)N[C@H](C(=O)N[C@H](C(=O)O)c4cc(O)cc(O)c4-c4cc3ccc4O)[C@H](O)c3ccc(c(Cl)c3)Oc3cc2cc(c3O[C@@H]2O[C@H](CO)[C@@H](O)[C@H](O)[C@H]2O[C@H]2C[C@](C)(N)[C@H](O)[C@H](C)O2)Oc2ccc(cc2Cl)[C@H]1O [Vancomycin]
Conditions | MIC [µg/mL]
B. subtilis 168 [1] | 0.375 (≈ 0.259 µM)
S. pneumoniae D39V [4] | 0.3 (≈ 0.207 µM)

Conditions | fitness
B. subtilis 168 [5], 0.0468 µg/mL | 0.997
B. subtilis 168 [5], 0.0935 µg/mL | 0.924
B. subtilis 168 [5], 0.0938 µg/mL | 0.853
B. subtilis 168 [5], 0.187 µg/mL | 0.0481
B. subtilis 168 [5], 0.1875 µg/mL | 0.169
B. subtilis 168 [5], 0.375 µg/mL | 0.0404
S. aureus DSM 20231 [6], 0.1875 µg/mL | ≥ 1
S. aureus DSM 20231 [6], 0.375 µg/mL | ≥ 1
S. aureus DSM 20231 [6], 0.5 µg/mL | 0.981
S. aureus DSM 20231 [6], 0.75 µg/mL | ≥ 1
S. aureus DSM 20231 [6], 1 µg/mL | 0.977
S. aureus DSM 20231 [6], 2 µg/mL | 0.992
S. aureus Newman [7], 0.1875 µg/mL | ≥ 1
S. aureus Newman [7], 0.375 µg/mL | 0.99
S. aureus Newman [7], 0.75 µg/mL | 0.999
S. pneumoniae D39V [8], 0.125 µg/mL | 0.97
S. pneumoniae D39V [8], 0.25 µg/mL | 0.489
S. pneumoniae D39V [8], 0.5 µg/mL | 0.159

Source: the supplement of paper PMC10627819
